Laboratory results published in ChEMBL document CHEMBL3600348, “Synthesis of novel derivatives of oxindole, their urease inhibition and molecular docking studies” (Bioorg Med Chem Lett, 2015).

These compounds were tested against Urease (Canavalia ensiformis, UniProt P07374) (assay: Inhibition of jack bean urease using urea as substrate assessed as ammonia production after 15 mins by Weatherburn assay).
Sequence of Urease (P07374 whole entry): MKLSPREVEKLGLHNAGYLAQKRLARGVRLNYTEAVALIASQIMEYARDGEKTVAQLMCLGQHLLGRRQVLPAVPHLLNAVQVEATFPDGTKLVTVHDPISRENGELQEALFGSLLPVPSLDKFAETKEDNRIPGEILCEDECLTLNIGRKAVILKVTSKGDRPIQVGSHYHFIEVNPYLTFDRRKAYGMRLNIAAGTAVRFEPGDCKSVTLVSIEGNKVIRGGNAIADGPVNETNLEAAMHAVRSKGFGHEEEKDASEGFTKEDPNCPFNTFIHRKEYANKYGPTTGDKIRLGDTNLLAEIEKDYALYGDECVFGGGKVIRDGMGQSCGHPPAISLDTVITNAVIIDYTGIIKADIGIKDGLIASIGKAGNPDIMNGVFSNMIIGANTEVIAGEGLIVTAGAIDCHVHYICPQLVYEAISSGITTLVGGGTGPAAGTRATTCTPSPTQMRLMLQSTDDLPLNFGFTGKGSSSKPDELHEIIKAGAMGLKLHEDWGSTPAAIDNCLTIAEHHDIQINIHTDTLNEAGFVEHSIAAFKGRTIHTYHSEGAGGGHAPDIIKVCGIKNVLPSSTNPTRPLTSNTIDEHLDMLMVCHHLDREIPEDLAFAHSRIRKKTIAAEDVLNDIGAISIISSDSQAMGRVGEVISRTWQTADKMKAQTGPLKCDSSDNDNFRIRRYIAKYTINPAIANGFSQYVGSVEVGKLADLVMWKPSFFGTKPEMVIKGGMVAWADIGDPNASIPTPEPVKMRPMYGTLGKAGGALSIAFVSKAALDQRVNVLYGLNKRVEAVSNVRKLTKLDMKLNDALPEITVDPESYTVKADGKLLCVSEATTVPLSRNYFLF
Work on O=C1Nc2ccc(Cl)cc2/C1=C\c1ccc(C(=O)N/N=C/c2c(O)cc(O)cc2O)cc1 yielded an IC50 of 13 µM.
C/C(=N\NC(=O)c1ccc(/C=C2/C(=O)Nc3ccc(Cl)cc32)cc1)c1c(O)cc(O)cc1O was tested, and the IC50 was 35.4 µM.
Compound O=C1Nc2ccc(Cl)cc2/C1=C\c1ccc(C(=O)N/N=C/c2ccc(O)cc2O)cc1 has an IC50 of 42.9 µM.
Compound O=C1Nc2ccc(Cl)cc2/C1=C\c1ccc(C(=O)N/N=C/c2cc(O)ccc2O)cc1 has an IC50 of 53.2 µM.
For O=C1Nc2ccc(Cl)cc2/C1=C\c1ccc(C(=O)N/N=C/c2cc(O)c(O)cc2O)cc1, the IC50 was 126 µM.
O=C1Nc2ccc(Cl)cc2/C1=C\c1ccc(C(=O)N/N=C/c2ccc(O)c(O)c2)cc1 gave an IC50 of 70.8 µM.
Compound O=C1Nc2ccc(Cl)cc2/C1=C\c1ccc(C(=O)N/N=C/c2cc(O)cc(O)c2)cc1 has an IC50 of 19.2 µM.
Compound O=C1Nc2ccc(Cl)cc2/C1=C\c1ccc(C(=O)N/N=C/c2cccc(O)c2O)cc1 has an IC50 of 109 µM.
O=C1Nc2ccc(Cl)cc2/C1=C\c1ccc(C(=O)N/N=C/c2cccc(O)c2)cc1 showed an IC50 of 102 µM.
Work on O=C1Nc2ccc(Cl)cc2/C1=C\c1ccc(C(=O)N/N=C/c2ccc(O)cc2)cc1 yielded an IC50 of 84.8 µM.
In the case of O=C1Nc2ccc(Cl)cc2/C1=C\c1ccc(C(=O)N/N=C/c2ccccc2O)cc1, the IC50 is reported as 120 µM.
For COc1ccc(/C=N/NC(=O)c2ccc(/C=C3/C(=O)Nc4ccc(Cl)cc43)cc2)cc1, the IC50 was 144 µM.
Compound O=C1Nc2ccc(Cl)cc2/C1=C\c1ccc(C(=O)N/N=C/c2ccc(Cl)cc2)cc1 has an IC50 of 111 µM.
For C/C(=N\NC(=O)c1ccc(/C=C2/C(=O)Nc3ccc(Cl)cc32)cc1)c1ccccc1O, the IC50 was 71.8 µM.
Work on COc1ccc(/C=N/NC(=O)c2ccc(/C=C3/C(=O)Nc4ccc(Cl)cc43)cc2)c(O)c1 yielded an IC50 of 145 µM.
COc1ccc(O)c(/C=N/NC(=O)c2ccc(/C=C3/C(=O)Nc4ccc(Cl)cc43)cc2)c1 gave an IC50 of 82 µM.
O=C1Nc2ccc(Cl)cc2/C1=C\c1ccc(C(=O)N/N=C/c2ccc([N+](=O)[O-])cc2)cc1 was tested, and the IC50 was 92.4 µM.
Work on O=C1Nc2ccc(Cl)cc2/C1=C\c1ccc(C(=O)N/N=C/c2cccc([N+](=O)[O-])c2)cc1 yielded an IC50 of 148 µM.
Compound CC(=O)NO [ACETOHYDROXAMIC ACID] has an IC50 of 42 µM.
